Reference: publication PMC9304232 (Epilepsia, 2022)
Read-outs that look alike come from different tables or passages of the source.

Assays:
hNaV1.6 [1] = molecular target: T1, hNaV1.6 (Homo sapiens, UniProt Q9UQD0); assay: ATX‐II‐induced persistent INa, whole‐cell patch clamp; details: for Persistent INa, slope: Hill slope of IC50 fit, hNaV1.6
hNaV1.6 [2] = molecular target: T1, hNaV1.6; assay: Peak INa voltage‐dependent block; details: for Peak INa VDB, slope: Hill slope; for Ratio to persistent INa (peak INa VDB): VDB IC50 / persistent INa IC50
male CD‐1 mice [3] = assay: Protective index; type: in vivo, mouse; details: for PI (plasma TC50/plasma EC50): based on free plasma concentrations
male CD‐1 mice [4] = assay: Mouse spontaneous locomotor activity; type: in vivo; details: for sLMA TD50: PRAX‐562 po, CBZ and LTG ip, dose reducing sLMA by 50%; for sLMA TC50, free brain: calculated free brain concentration
hNaV1.6 [5] = molecular target: T1, hNaV1.6; assay: Peak INa use‐dependent block; type: cell-based; details: for Peak INa UDB, 10 Hz, slope: Hill slope; for Peak INa UDB, 10 Hz, slope / Ratio to persistent INa (peak INa UDB) / Ratio to peak INa TB (peak INa UDB): hNaV1.6; for Use‐dependent block at a stimulation frequency of 10 Hz: hNaV1.6, Figure 2E,F; for Ratio to persistent INa (peak INa UDB): UDB IC50 / persistent INa IC50; for Ratio to peak INa TB (peak INa UDB): preference of use‐dependent block over tonic block
male CD‐1 mice [6] = assay: Mouse maximal electroshock seizure; type: in vivo; details: for EC50: Mus musculus; for MES ED50 (increasing latency to tonic extension seizures): PRAX‐562 po, CBZ and LTG ip
hNaV1.6 [7] = molecular target: T1, hNaV1.6; assay: Peak INa tonic block; type: cell-based; details: for Peak INa TB, slope: Hill slope; for Peak INa TB, slope / Ratio to persistent INa (peak INa TB): hNaV1.6; for Ratio to persistent INa (peak INa TB): TB IC50 / persistent INa IC50
[8] = system: mice with Scn8a (NaV1.6‐N1768D/+, NaV1.6‐R1872W/+) or Scn2a (NaV1.2‐Q54) variants; details: Scn8a or Scn2a gain‐of‐function variants; ref [20], [21], [22]; cited from earlier work
hNaV1.2 [9] = molecular target: T2, hNaV1.2 (Homo sapiens, UniProt Q99250); assay: Peak INa voltage‐dependent block, patch clamp; type: cell-based; details: VDB IC50 / persistent IC50
hNaV1.2 [10] = molecular target: T2, hNaV1.2; assay: Peak INa tonic block, patch clamp; type: cell-based; details: TB IC50 / persistent IC50
[11] = system: hippocampal CA1 pyramidal neurons; assay: Evoked action potential firing; type: cell-based; details: wild‐type mouse CA1 neurons
hNaV1.1 [12] = molecular target: T3, hNaV1.1 (Homo sapiens, UniProt P35498); assay: Peak INa voltage‐dependent block, patch clamp; type: cell-based; details: VDB IC50 / persistent IC50
hNaV1.5 [13] = molecular target: T4, hNaV1.5 (Homo sapiens, UniProt Q14524); assay: Peak INa tonic block, patch clamp; type: cell-based; details: TB / persistent IC50
T4 sequence (Q14524 1-2015 isoform Q14524-2): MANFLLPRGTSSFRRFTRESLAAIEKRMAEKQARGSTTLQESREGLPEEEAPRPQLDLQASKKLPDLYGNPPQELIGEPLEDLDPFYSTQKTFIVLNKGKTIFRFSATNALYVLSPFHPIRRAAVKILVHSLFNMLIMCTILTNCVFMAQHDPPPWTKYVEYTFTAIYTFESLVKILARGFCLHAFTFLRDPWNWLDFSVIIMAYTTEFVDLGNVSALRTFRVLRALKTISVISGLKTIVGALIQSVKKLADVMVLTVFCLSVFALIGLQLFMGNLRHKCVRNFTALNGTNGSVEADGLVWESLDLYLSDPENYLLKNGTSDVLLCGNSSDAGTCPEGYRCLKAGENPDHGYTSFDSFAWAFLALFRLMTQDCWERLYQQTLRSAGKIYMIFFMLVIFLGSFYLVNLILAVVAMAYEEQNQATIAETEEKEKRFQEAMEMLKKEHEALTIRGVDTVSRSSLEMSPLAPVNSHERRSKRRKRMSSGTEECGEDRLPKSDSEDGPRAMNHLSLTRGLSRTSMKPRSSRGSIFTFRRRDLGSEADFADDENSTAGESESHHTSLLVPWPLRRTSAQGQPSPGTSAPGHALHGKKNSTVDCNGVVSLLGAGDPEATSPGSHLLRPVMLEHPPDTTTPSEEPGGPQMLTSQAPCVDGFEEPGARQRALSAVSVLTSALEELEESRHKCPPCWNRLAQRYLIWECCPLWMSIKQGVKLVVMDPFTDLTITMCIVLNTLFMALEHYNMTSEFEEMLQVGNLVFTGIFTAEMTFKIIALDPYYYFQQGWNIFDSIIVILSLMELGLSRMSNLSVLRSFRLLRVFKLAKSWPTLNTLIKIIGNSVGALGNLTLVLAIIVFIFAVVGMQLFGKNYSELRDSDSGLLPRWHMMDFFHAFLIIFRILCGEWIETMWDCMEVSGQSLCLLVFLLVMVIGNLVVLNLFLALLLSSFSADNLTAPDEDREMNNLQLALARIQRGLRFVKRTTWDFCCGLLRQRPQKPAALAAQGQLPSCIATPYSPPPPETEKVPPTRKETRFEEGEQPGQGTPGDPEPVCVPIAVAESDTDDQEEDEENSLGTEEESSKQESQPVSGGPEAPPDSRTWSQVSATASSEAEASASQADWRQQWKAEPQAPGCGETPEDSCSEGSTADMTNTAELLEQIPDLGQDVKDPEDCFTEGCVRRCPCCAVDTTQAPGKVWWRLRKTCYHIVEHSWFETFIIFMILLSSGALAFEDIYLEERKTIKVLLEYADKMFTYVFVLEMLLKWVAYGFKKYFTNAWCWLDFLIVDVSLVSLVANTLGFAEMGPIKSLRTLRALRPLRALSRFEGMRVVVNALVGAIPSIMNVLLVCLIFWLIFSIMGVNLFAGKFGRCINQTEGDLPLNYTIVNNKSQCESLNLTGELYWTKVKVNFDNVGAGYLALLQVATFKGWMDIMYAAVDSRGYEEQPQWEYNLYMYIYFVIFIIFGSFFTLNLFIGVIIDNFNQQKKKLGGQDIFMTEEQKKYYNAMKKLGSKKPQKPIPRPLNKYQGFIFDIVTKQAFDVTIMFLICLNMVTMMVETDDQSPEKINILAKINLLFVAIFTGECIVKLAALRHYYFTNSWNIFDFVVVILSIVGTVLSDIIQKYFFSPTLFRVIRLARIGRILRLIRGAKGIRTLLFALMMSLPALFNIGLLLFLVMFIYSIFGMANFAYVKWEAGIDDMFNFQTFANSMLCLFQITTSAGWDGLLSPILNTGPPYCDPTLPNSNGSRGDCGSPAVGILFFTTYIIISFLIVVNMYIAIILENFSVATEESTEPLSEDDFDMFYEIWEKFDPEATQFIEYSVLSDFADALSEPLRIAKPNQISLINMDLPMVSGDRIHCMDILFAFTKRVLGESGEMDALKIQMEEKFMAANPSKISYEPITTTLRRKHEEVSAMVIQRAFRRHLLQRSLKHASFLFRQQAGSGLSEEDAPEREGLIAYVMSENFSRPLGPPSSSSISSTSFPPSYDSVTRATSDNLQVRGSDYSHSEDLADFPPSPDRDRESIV

hNaV1.5 [14] = molecular target: T4, hNaV1.5; assay: Peak INa voltage‐dependent block, patch clamp; type: cell-based; details: VDB IC50 / persistent IC50
hNaV1.1 [15] = molecular target: T3, hNaV1.1; assay: Peak INa tonic block, patch clamp; type: cell-based; details: TB IC50 / persistent IC50
[16] = male CD‐1 mice, po, total brain

T1 sequence (Q9UQD0 whole entry): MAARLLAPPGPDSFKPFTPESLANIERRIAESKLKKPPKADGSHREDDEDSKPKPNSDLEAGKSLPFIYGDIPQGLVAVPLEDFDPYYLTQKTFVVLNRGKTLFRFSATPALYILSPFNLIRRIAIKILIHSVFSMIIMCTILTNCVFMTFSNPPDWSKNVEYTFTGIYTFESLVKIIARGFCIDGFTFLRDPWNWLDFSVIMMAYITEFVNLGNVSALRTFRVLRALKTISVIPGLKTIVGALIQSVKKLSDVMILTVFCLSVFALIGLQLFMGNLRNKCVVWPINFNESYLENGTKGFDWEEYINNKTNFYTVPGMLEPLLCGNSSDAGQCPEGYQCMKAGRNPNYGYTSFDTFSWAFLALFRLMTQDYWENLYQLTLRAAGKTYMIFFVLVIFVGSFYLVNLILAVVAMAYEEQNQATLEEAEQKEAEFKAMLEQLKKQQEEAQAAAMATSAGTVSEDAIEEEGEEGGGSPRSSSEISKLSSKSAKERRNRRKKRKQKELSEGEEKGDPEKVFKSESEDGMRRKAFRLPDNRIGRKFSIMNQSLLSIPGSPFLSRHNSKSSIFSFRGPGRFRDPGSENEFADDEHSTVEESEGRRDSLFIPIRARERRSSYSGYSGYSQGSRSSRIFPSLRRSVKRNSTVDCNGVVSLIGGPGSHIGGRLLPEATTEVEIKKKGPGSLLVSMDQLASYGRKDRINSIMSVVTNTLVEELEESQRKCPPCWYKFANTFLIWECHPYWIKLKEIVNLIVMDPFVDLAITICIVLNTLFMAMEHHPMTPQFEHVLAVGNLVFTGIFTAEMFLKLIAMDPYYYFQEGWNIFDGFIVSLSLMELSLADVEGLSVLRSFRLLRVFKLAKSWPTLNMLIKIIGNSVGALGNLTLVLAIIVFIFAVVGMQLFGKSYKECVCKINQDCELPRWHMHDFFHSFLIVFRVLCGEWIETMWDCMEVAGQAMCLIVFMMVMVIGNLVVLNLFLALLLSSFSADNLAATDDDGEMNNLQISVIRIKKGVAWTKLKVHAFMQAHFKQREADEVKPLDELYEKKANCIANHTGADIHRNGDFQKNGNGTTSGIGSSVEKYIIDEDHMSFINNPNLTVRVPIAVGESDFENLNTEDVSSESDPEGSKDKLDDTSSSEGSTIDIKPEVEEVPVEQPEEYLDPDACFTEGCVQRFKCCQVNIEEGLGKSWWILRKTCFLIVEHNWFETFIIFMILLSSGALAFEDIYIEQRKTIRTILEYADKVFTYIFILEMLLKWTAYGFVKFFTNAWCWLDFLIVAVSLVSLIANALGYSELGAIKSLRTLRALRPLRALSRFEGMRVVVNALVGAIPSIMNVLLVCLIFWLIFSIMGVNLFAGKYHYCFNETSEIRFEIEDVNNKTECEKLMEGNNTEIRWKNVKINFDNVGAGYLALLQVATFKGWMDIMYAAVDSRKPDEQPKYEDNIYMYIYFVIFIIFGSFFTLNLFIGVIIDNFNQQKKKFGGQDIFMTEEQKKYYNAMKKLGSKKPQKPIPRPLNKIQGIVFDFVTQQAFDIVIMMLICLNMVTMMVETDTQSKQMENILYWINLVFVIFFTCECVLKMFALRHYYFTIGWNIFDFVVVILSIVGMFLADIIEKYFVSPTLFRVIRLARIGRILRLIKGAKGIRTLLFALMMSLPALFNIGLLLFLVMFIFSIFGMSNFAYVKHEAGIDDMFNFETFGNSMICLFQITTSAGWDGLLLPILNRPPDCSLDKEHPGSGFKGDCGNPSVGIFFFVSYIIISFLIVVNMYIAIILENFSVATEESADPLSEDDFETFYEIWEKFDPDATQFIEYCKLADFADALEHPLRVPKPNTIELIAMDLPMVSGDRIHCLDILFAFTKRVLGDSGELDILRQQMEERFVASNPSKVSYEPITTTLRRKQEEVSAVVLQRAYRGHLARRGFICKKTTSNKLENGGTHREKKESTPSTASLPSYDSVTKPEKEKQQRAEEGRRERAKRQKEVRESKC

NC(=O)N1c2ccccc2C=Cc2ccccc21 [Carbamazepine, carbamazepine]
Persistent INa, slope (hNaV1.6 [1]): 1.1 | IC50 (hNaV1.6 [1]; Persistent INa, IC50, hNaV1.6, 200 nmol·L^–1 ATX‐II, holding −120 mV): 77500 nM | Peak INa VDB, slope (hNaV1.6 [2]): .9 | PI (plasma TC50/plasma EC50) (male CD‐1 mice [3]): 3.4 | Sedation/sLMA at the dose required for complete seizure prevention (male CD‐1 mice [4]; ip): significant reduction in sLMA | sLMA TD50 (male CD‐1 mice [4]; male CD‐1 mice, listed as CBZ): 26.5 mg/kg | sLMA TC50, free brain (male CD‐1 mice [4]; male CD‐1 mice): 14 350 nmol·L^–1 | Peak INa UDB, 10 Hz, slope (hNaV1.6 [5]): .9 | Use‐dependent block at a stimulation frequency of 10 Hz (hNaV1.6 [5]): not observed | EC50 (male CD‐1 mice [6]; read-out: MES EC50, free brain): 2410 nM | MES ED50 (increasing latency to tonic extension seizures) (male CD‐1 mice [6]; male CD‐1 mice, listed as CBZ): 3.4 mg/kg | Peak INa TB, slope (hNaV1.6 [7]): 1.0

NC(=O)O[C@@H](Cn1ncnn1)c1ccccc1Cl [Cenobamate]
Persistent INa, slope (hNaV1.6 [1]): 1.1 | Peak INa VDB, slope (hNaV1.6 [2]): .9 | Ratio to persistent INa (peak INa VDB) (hNaV1.6 [2]): .9 | Peak INa UDB, 10 Hz, slope (hNaV1.6 [5]): .7 | Ratio to persistent INa (peak INa UDB) (hNaV1.6 [5]): 11 | Ratio to peak INa TB (peak INa UDB) (hNaV1.6 [5]): 2.3 | Peak INa TB, slope (hNaV1.6 [7]): 1.1 | Ratio to persistent INa (peak INa TB) (hNaV1.6 [7]): 24

COC[C@@H](NC(C)=O)C(=O)NCc1ccccc1 [Lacosamide]
Persistent INa, slope (hNaV1.6 [1]): .9 | Peak INa VDB, slope (hNaV1.6 [2]): 1.2 | Ratio to persistent INa (peak INa VDB) (hNaV1.6 [2]): .3 | Peak INa UDB, 10 Hz, slope (hNaV1.6 [5]): 1.3 | Ratio to persistent INa (peak INa UDB) (hNaV1.6 [5]): .8

Nc1nnc(-c2cccc(Cl)c2Cl)c(N)n1 [Lamotrigine, lamotrigine]
Persistent INa, slope (hNaV1.6 [1]): 1.0 | Peak INa VDB, slope (hNaV1.6 [2]): .9 | sLMA TD50 (male CD‐1 mice [4]; male CD‐1 mice, listed as LTG): 37.6 mg/kg | sLMA TC50, free brain (male CD‐1 mice [4]; male CD‐1 mice): 12 853 nmol·L^–1 | Peak INa UDB, 10 Hz, slope (hNaV1.6 [5]): 1.0 | Use‐dependent block at a stimulation frequency of 10 Hz (hNaV1.6 [5]): not observed | EC50 (male CD‐1 mice [6]; read-out: MES EC50, free brain): 2750 nM | MES ED50 (increasing latency to tonic extension seizures) (male CD‐1 mice [6]; male CD‐1 mice, listed as LTG): 5.0 mg/kg | Peak INa TB, slope (hNaV1.6 [7]): .8

NC(=O)N1c2ccccc2CC(=O)c2ccccc21 [Oxcarbazepine]
Persistent INa, slope (hNaV1.6 [1]): 1.0 | Peak INa VDB, slope (hNaV1.6 [2]): 1.1 | Ratio to persistent INa (peak INa VDB) (hNaV1.6 [2]): .3 | Peak INa TB, slope (hNaV1.6 [7]): 1.7 | Ratio to persistent INa (peak INa TB) (hNaV1.6 [7]): 8

FC(F)(F)Oc1ccc(-c2ccc3nnc(C(F)(F)F)n3c2)cc1 [PRAX‐330]
Seizures and premature death in NaV DEE mouse models [8]: protected mice from seizures and premature death

CCOC(F)(F)c1nnc2cnc(-c3cnc(OCC(F)(F)F)c(F)c3)cn12 [PRAX‐562, 3‐[ethoxydifluoromethyl]‐6‐[5‐fluoro‐6‐(2,2,2‐trifluoroethoxy)pyridin‐3‐yl]‐[1,2,4]triazolo[4,3‐a]pyrazine]
Ratio to Persistent INa (Peak INa VDB), hNaV1.2 (hNaV1.2 [9]): 8.2 | Persistent INa, slope (hNaV1.6 [1]): 1.2 | Ratio to Persistent INa (Peak INa TB), hNaV1.2 (hNaV1.2 [10]): 80 | Intrinsic excitability, number of evoked APs ([11]; .3 µmol·L^–1): significantly reduced | AP amplitude ([11]; .3 µmol·L^–1, +200 pA): minimal effects | Peak INa VDB, slope (hNaV1.6 [2]): 1.0 | Ratio to persistent INa (peak INa VDB) (hNaV1.6 [2]): 2.2 | PI wider compared to CBZ and LTG (male CD‐1 mice [3]; acute, MES and sLMA models): 3 × | PI (plasma TC50/plasma EC50) (male CD‐1 mice [3]): ~17 | Effect on locomotor function (male CD‐1 mice [4]; 10 mg/kg po): no effect | Distance moved in sLMA (male CD‐1 mice [4]; 20 and 40 mg/kg po): reductions in the distance moved | sLMA TC50, plasma, free (male CD‐1 mice [4]; male CD‐1 mice, po, free plasma): 308.9 nmol·L^–1 | sLMA TC50, brain (male CD‐1 mice [4]; [16]): 1899 ng/g | sLMA TC50, plasma (male CD‐1 mice [4]; male CD‐1 mice, po, total plasma): 1.553 µg/mL | sLMA TC50, free brain (male CD‐1 mice [4]; male CD‐1 mice): 69.7 nmol·L^–1 | Peak INa UDB, 10 Hz, slope (hNaV1.6 [5]): 1.3 | Ratio to persistent INa (peak INa UDB) (hNaV1.6 [5]): 2 | Ratio to peak INa TB (peak INa UDB) (hNaV1.6 [5]): 31 | Mice that did not exhibit tonic seizures (male CD‐1 mice [6]; 10 mg/kg po, 30 min before MES): 11 of 12 | EC50 (male CD‐1 mice [6]; po, read-out: MES EC50, plasma): 0.0901 µg/mL | EC50 (male CD‐1 mice [6]; po, read-out: MES EC50, plasma, free): 17.9 nM | EC50 (male CD‐1 mice [6]; read-out: MES EC50, free brain): 4.3 nM | MES EC50, brain (male CD‐1 mice [6]; [16]): 116 ng/g | Ratio to Persistent INa (Peak INa VDB), hNaV1.1 (hNaV1.1 [12]): 6.3 | Ratio to Persistent INa (Peak INa TB), hNaV1.5 (hNaV1.5 [13]): > 174 | Ratio to Persistent INa (Peak INa VDB), hNaV1.5 (hNaV1.5 [14]): 5.8 | Peak INa TB, slope (hNaV1.6 [7]): 1.0 | IC50 (hNaV1.6 [7]; Peak INa TB, IC50, hNaV1.6 tonic block, .1 Hz): 8470 nM | Ratio to persistent INa (peak INa TB) (hNaV1.6 [7]): 60 | Ratio to Persistent INa (Peak INa TB), hNaV1.1 (hNaV1.1 [15]): 173

O=C1NC(=O)C(c2ccccc2)(c2ccccc2)N1 [Phenytoin]
Persistent INa, slope (hNaV1.6 [1]): .8 | Peak INa VDB, slope (hNaV1.6 [2]): 1.0 | Ratio to persistent INa (peak INa VDB) (hNaV1.6 [2]): .8 | Peak INa UDB, 10 Hz, slope (hNaV1.6 [5]): .6 | Ratio to persistent INa (peak INa UDB) (hNaV1.6 [5]): 15
